Experimental data reported in PubChem BioAssay AID330 (DTP/NCI, 2004).
Several values for one entry are separate records, joined by “and”; a condition that tells them apart may be missing. Equal entries are not always repeated. Inconclusive results and toxic doses are left out. Rule for the calls: active = survival T/C of 150% or more; inactive = T/C below 125% in these data.

Tested on: P388 leukemia ip, CD2F1 mice, survival T/C
Assay: NCI In Vivo Anticancer Drug Screen. Data for tumor model P388 Leukemia (intraperitoneal) in CD2F1 (CDF1) mice
Conditions: endpoint: median survival time, higher = longer survival
Method in brief: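 Mice carrying the transplanted tumor received test compound or vehicle. Survival was recorded in each group, and the value is the treated-group measurement divided by that of the vehicle-treated control group.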

[1] = dose: 60.0 mg/kg/injection, schedule: Q01DX005 (ip), vehicle: saline with Tween-80
[2] = dose: 120.0 mg/kg/injection, schedule: Q01DX005 (ip), vehicle: saline with Tween-80
[3] = dose: 240.0 mg/kg/injection, schedule: Q01DX005 (ip), vehicle: saline with Tween-80
[4] = dose: 50.0 mg/kg/injection, schedule: Q01DX005 (ip), vehicle: saline with Tween-80
[5] = dose: 100.0 mg/kg/injection, schedule: Q01DX005 (ip), vehicle: saline with Tween-80
[6] = dose: 50.0 mg/kg/injection, schedule: Q01DX009 (ip), vehicle: Klucel (hydroxypropylcellulose) (HPC)
[7] = dose: 100.0 mg/kg/injection, schedule: Q01DX009 (ip), vehicle: Klucel (hydroxypropylcellulose) (HPC)
[8] = dose: 60.0 mg/kg/injection, schedule: Q01DX005 (ip), vehicle: Klucel (hydroxypropylcellulose) (HPC)
[9] = dose: 120.0 mg/kg/injection, schedule: Q01DX005 (ip), vehicle: Klucel (hydroxypropylcellulose) (HPC)
[10] = dose: 240.0 mg/kg/injection, schedule: Q01DX005 (ip), vehicle: Klucel (hydroxypropylcellulose) (HPC)
[11] = dose: 50.0 mg/kg/injection, schedule: Q01DX005 (ip), vehicle: Klucel (hydroxypropylcellulose) (HPC)
[12] = dose: 100.0 mg/kg/injection, schedule: Q01DX005 (ip), vehicle: Klucel (hydroxypropylcellulose) (HPC)
[13] = dose: 200.0 mg/kg/injection, schedule: Q01DX005 (ip), vehicle: Klucel (hydroxypropylcellulose) (HPC)
[14] = dose: 50.0 mg/kg/injection, schedule: Q01DX009 (ip), vehicle: saline
[15] = dose: 100.0 mg/kg/injection, schedule: Q01DX009 (ip), vehicle: saline
[16] = dose: 200.0 mg/kg/injection, schedule: Q01DX009 (ip), vehicle: saline
[17] = dose: 100.0 mg/kg/injection, schedule: Q04DX003 (ip), vehicle: Klucel (hydroxypropylcellulose) (HPC)
[18] = dose: 200.0 mg/kg/injection, schedule: Q04DX003 (ip), vehicle: Klucel (hydroxypropylcellulose) (HPC)
[19] = dose: 400.0 mg/kg/injection, schedule: Q04DX003 (ip), vehicle: Klucel (hydroxypropylcellulose) (HPC)

Measured: T/C

CCOC(=O)C(C(=O)OCC)(C(=O)C(F)(F)C(F)(F)C(F)(F)C(F)(F)C(=O)C(C(=O)OCC)(C(=O)OCC)c1ccccc1)c1ccccc1
inactive: [1] 93 % of control | [2] 98 % of control | [3] 89 % of control

Cn1cc(NC(=O)c2cc(NC(=O)c3cc(NC=O)cn3C)cn2C)cc1C(=O)NCCC(=N)N
inactive: dose: 15.0 mg/kg/injection, schedule: Q01DX005 (ip), vehicle: water 100 % of control | dose: 30.0 mg/kg/injection, schedule: Q01DX005 (ip), vehicle: water 101 % of control | dose: 60.0 mg/kg/injection, schedule: Q01DX005 (ip), vehicle: water 96 % of control | dose: 120.0 mg/kg/injection, schedule: Q01DX005 (ip), vehicle: water 104 % of control

O=C1c2ccccc2C(=O)c2c(I)cccc21
inactive: [4] 97 % of control | [5] 97 % of control

COC(=O)C1=CO[C@@H](OC2OC(CO)C(O)C(O)C2O)[C@H]2[C@@H]1C=C[C@@]2(O)CO (stereo partly specified)
inactive: dose: 6.25 mg/kg/injection, schedule: Q01DX009 (ip), vehicle: Klucel (hydroxypropylcellulose) (HPC) 100 % of control | dose: 12.5 mg/kg/injection, schedule: Q01DX009 (ip), vehicle: Klucel (hydroxypropylcellulose) (HPC) 88 % of control | dose: 25.0 mg/kg/injection, schedule: Q01DX009 (ip), vehicle: Klucel (hydroxypropylcellulose) (HPC) 100 % of control | [6] 99 % of control | [7] 107 % of control

NS(=O)(=O)c1cc2c(cc1Cl)NC=NS2(=O)=O
inactive: dose: 18.75 mg/kg/injection, schedule: Q01DX009 (ip), vehicle: Klucel (hydroxypropylcellulose) (HPC) 100 % of control and 103 % of control | dose: 37.5 mg/kg/injection, schedule: Q01DX009 (ip), vehicle: Klucel (hydroxypropylcellulose) (HPC) 104 % of control and 91 % of control | dose: 75.0 mg/kg/injection, schedule: Q01DX009 (ip), vehicle: Klucel (hydroxypropylcellulose) (HPC) 104 % of control and 89 % of control | dose: 150.0 mg/kg/injection, schedule: Q01DX009 (ip), vehicle: Klucel (hydroxypropylcellulose) (HPC) 104 % of control and 90 % of control | dose: 225.0 mg/kg/injection, schedule: Q01DX009 (ip), vehicle: Klucel (hydroxypropylcellulose) (HPC) 99 % of control and 100 % of control

COc1cc(/C=C/C(=O)c2ccc(OCc3ccccc3)cc2OC(C)=O)c(OC)c(OC)c1OC
inactive: dose: 100.0 mg/kg/injection, schedule: Q01DX001 (ip), vehicle: Klucel (hydroxypropylcellulose) (HPC) 96 % of control | dose: 200.0 mg/kg/injection, schedule: Q01DX001 (ip), vehicle: Klucel (hydroxypropylcellulose) (HPC) 94 % of control

CC1(C)C[C@H](O)[C@H]2O[C@@]2(C)C1
inactive: dose: 100.0 mg/kg/injection, schedule: Q04DX002 (ip), vehicle: saline 95 % of control | dose: 200.0 mg/kg/injection, schedule: Q04DX002 (ip), vehicle: saline 96 % of control | dose: 400.0 mg/kg/injection, schedule: Q04DX002 (ip), vehicle: saline 105 % of control

COC(=O)C1C(=O)C(C(=O)OC)C2(C)C(C(=O)OC)C(=O)C(C(=O)OC)C12C (stereo unspecified)
inactive: [8] 103 % of control | [9] 102 % of control | [10] 103 % of control

CCOC(=O)C1=CNN=CC12C(=O)C(C(=O)OCC)CC2C(=O)OCC (stereo unspecified)
inactive: dose: 100.0 mg/kg/injection, schedule: Q04DX002 (ip), vehicle: saline with Tween-80 96 % of control | dose: 200.0 mg/kg/injection, schedule: Q04DX002 (ip), vehicle: saline with Tween-80 93 % of control | dose: 400.0 mg/kg/injection, schedule: Q04DX002 (ip), vehicle: saline with Tween-80 92 % of control

Oc1ccc2[nH]cc(CCNCC3(O)OCC(O)C(O)C3O)c2c1 (stereo unspecified)
inactive: dose: 60.0 mg/kg/injection, schedule: Q01DX005 (ip), vehicle: saline 98 % of control | dose: 120.0 mg/kg/injection, schedule: Q01DX005 (ip), vehicle: saline 101 % of control | dose: 240.0 mg/kg/injection, schedule: Q01DX005 (ip), vehicle: saline 91 % of control

O=C(O)c1cc2ccccc2c2c3c(ccc12)OCO3
inactive: [1] 95 % of control | [2] 100 % of control | [3] 100 % of control

COC1/C=C/OC2(C)Oc3c(C)c(O)c4c(O)c(c(CNCc5ccccc5)c(O)c4c3C2=O)NC(=O)/C(C)=C\C=C\C(C)C(O)C(C)C(O)C(C)C(OC(C)=O)C1C (stereo unspecified)
inactive: dose: 25.0 mg/kg/injection, schedule: Q01DX009 (ip), vehicle: other 92 % of control | dose: 50.0 mg/kg/injection, schedule: Q01DX009 (ip), vehicle: other 91 % of control | dose: 100.0 mg/kg/injection, schedule: Q01DX009 (ip), vehicle: other 88 % of control | dose: 400.0 mg/kg/injection, schedule: Q01DX009 (ip), vehicle: other 89 % of control

CC[C@@]1(CCC(=O)OC)CCC(=O)N2CC[C@@]3(C(=O)Nc4ccccc43)[C@@H]21
inactive: [11] 100 % of control | [12] 95 % of control | [13] 91 % of control

CC1(C(=O)O)C2[Se]c3[se]ccc3C2C1(C)C(=O)O (stereo unspecified)
inactive: [4] 104 % of control | [5] 96 % of control | dose: 200.0 mg/kg/injection, schedule: Q01DX005 (ip), vehicle: saline with Tween-80 102 % of control

C=C(C)C1Cc2cc(C(C)=O)c(O)c(OC)c2O1 (stereo unspecified)
inactive: dose: 25.0 mg/kg/injection, schedule: Q01DX005 (ip), vehicle: Klucel (hydroxypropylcellulose) (HPC) 101 % of control | [11] 108 % of control | [12] 97 % of control | [13] 99 % of control

O=S(=O)([O-])[O-].OCCNCCNCC[OH2+].OCCNCCNCC[OH2+].[Ni+2]
inactive: dose: 12.5 mg/kg/injection, schedule: Q01DX009 (ip), vehicle: saline 102 % of control | dose: 25.0 mg/kg/injection, schedule: Q01DX009 (ip), vehicle: saline 93 % of control

O=c1[nH]c(-c2ccccc2)nc2nc3ccc([N+](=O)[O-])cc3[n+]([O-])c12
inactive: [14] 93 % of control | [15] 92 % of control | [16] 97 % of control

O=C(O)CC(CC(=O)N(CCP(c1ccccc1)c1ccccc1)CCP(c1ccccc1)c1ccccc1)C(=O)O (stereo unspecified) (tested in a mixture with another compound)
inactive: [14] 111 % of control | [15] 111 % of control | [17] 99 % of control | [16] 112 % of control | [18] 101 % of control | [19] 97 % of control

c1ccc(-c2cc(CNc3nc4ccccc4s3)on2)cc1
inactive: [6] 99 % of control | [7] 99 % of control | dose: 200.0 mg/kg/injection, schedule: Q01DX009 (ip), vehicle: Klucel (hydroxypropylcellulose) (HPC) 99 % of control

c1ccc2cc3c(N=Nc4cc5ccccc5[nH]4)cccc3cc2c1
inactive: dose: 100.0 mg/kg/injection, schedule: Q01DX001 (ip), vehicle: saline with Tween-80 97 % of control | dose: 200.0 mg/kg/injection, schedule: Q01DX001 (ip), vehicle: saline with Tween-80 97 % of control | dose: 400.0 mg/kg/injection, schedule: Q01DX001 (ip), vehicle: saline with Tween-80 94 % of control

COc1ccc(CN2COc3c(ccc4cccnc34)C2)cc1
inactive: [17] 93 % of control | [18] 93 % of control | [19] 111 % of control

COc1ccc(NC2=CC(=S)NC(C)(C)C2)cc1
inactive: [14] 92 % of control | [15] 104 % of control | [16] 104 % of control

CC1CCCC(C2CCCCCCC2O)N1 (stereo unspecified)
inactive: dose: 50.0 mg/kg/injection, schedule: Q01DX005 (ip), vehicle: saline 100 % of control | dose: 100.0 mg/kg/injection, schedule: Q01DX005 (ip), vehicle: saline 92 % of control | dose: 200.0 mg/kg/injection, schedule: Q01DX005 (ip), vehicle: saline 97 % of control

CN(C)C1CS(=O)(=O)OC2=C1CCc1c2ccn1C (stereo unspecified)
inactive: [8] 96 % of control | [9] 98 % of control | [10] 96 % of control

Cc1ccc(Br)c(C(O)(C(F)(F)F)C(F)(F)F)c1C
inactive: [6] 107 % of control | [7] 106 % of control
